Experimental data reported in patent US12421242B2, “Substituted tetrahydropyrrolo-pyridinone compounds and their use in treating medical conditions” (Karuna Therapeutics, Inc., priority 2022, dated 2025).

Experiments:
[1] = molecular target: T1, hM4 receptors (Homo sapiens, UniProt P08173); test: Human M4 PAM pERK assay; type: cell-based; settings: PAM mode
T1 construct: expressed in transfected cells; host or cells: CHO cells
T1 sequence (P08173 1-479): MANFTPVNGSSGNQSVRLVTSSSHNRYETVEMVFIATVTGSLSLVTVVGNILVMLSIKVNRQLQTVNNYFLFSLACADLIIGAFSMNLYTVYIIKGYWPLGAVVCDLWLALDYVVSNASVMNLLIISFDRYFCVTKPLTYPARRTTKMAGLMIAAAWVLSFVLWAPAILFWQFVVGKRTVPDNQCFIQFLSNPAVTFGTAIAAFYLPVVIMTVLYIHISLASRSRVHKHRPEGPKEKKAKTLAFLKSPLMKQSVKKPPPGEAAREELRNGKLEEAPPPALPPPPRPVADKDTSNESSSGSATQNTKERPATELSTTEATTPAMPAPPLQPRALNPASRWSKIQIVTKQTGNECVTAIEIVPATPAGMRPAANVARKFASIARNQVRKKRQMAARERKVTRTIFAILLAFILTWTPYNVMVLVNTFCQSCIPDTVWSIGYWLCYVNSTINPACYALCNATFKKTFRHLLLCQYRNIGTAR
In short: (§1)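 CHO cells expressing hM4 or rM4 were serum-starved 4 h, then given compound (ten-point curve, 10 μM top, duplicate) with an EC20 of acetylcholine (10 nM final) for 5 min at 37° C. Phospho-ERK in lysates was detected by TR-FRET.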

[2] = molecular target: T2, rM4 receptors (Rattus norvegicus, UniProt P08485); test: Rat M4 PAM pERK assay; type: cell-based; settings: PAM mode
T2 construct: expressed in transfected cells; host or cells: CHO cells
T2 sequence (P08485 1-478): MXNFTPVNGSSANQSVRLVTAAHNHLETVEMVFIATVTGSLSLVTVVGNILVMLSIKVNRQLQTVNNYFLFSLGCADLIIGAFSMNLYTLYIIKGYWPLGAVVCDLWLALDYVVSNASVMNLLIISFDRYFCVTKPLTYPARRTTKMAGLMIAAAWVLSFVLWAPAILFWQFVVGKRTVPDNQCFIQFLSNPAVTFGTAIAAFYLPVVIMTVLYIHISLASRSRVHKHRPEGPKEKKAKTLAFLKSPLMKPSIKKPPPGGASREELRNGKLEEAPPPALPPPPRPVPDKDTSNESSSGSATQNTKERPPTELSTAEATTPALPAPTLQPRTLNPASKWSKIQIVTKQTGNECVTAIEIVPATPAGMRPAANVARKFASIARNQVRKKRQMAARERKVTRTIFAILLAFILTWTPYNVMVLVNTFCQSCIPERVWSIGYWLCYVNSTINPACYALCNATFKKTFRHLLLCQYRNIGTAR
In short: as §1

[3] = molecular target: T3, human M4 receptor (Homo sapiens, UniProt P08173); test: M4 GTPγS PAM assay; type: biochemical; settings: CHO-K1 membranes expressing human M4, with EC20 acetylcholine (40 nM)
T3 construct: expressed in transfected cells
T3 sequence (P08173 1-479): T1 sequence (P08173 1-479)
Method: The M4 GTPγS PAM method was used. Membranes were prepared for GTPgS binding assays from CHO-K1 cells stably expressing human M4 receptor. Briefly, cells were grown in 5-layer cell culture flasks. Cells were washed with 50 mL of PBS and then dissociated with 0.05% trypsin. Dissociated cells were then collected by centrifugation at 650×g for 8 minutes at 4° C. Pellets were washed again in PBS by centrifugation and resuspended in 30 mL of 20 mM HEPES, 10 mM EDTA, pH 7.4. After sitting on ice for 30 min, membranes were collected by centrifugation at 50000×g for 15′ at 4° C., resuspended in 30 mL of 20 mM HEPES, 0.1 mM EDTA, pH 7.4 and collected again by centrifugation. Pellets were then washed twice by centrifugation in 30 mL of 20 mM HEPES, pH 7.4, and stored at −80° C. until the day of the assay. On the day of the assay, pellets were thawed on ice and resuspended in 1 mL of 20 mM HEPES, pH 7.4, 10 mM MgCl2, 100 mM NaCl using dounce homogenization. Membrane protein concentration is determined by BCA protein assay (Promega, Madison, WI) according to Promega guidelines.
On the day of the assay, serial dilutions of test PAM compounds were brought up in assay buffer (20 mM HEPES, 10 mM MgCl2, 100 mM NaCl) at 4× final assay concentration. […] of membrane homogenates (containing […] of membrane protein) were prepared in assay buffer supplemented with GDP at 4× final assay concentration (final assay concentration of GDP is 5 uM for M2 and 0.1 uM for M4) and dispensed into 96 well polypropylene, U-bottom Greiner plates. […] of vehicle or test PAM compound at 4× of final assay concentration diluted in the assay buffer were added to membrane and plates are incubated for 10-15 minutes at room temperature with gentle shaking. Then, […] of EC20 acetylcholine in assay buffer at 4× final assay concentration was added to assay plates (EC20 final assay concentrations was 40 nM for human M4).
Plates were then incubated, with shaking, for an additional 10-15 minutes. 25 mL of 0.4 nM ^35S-GTP (Perkin Elmer, Waltham, MA) in assay buffer was added to assay mixtures. The binding reaction is left on the shaker for 1 hour at room temperature. Membranes in assay reactions were then transferred to GF/C filter plates (Unifilter, Perkin Elmer) and washed three times using a FilterMate Harvester (Perkin Elmer) with cold assay buffer containing no GDP. Filter plates were then dried at 40° C. overnight followed by the addition of […] of Beta Plate Scintillation liquid. Plates are top and bottom sealed before being read on TopCount scintillation counter (Perkin Elmer, Waltham, MA).

SMILES | EC50 [1] | EC50 [2] | EC50 [3]
Cc1c2c(n(C)c(=O)c1Cl)CN(C(=O)c1ccc3nc(C(F)(F)F)sc3c1)C2 [Compound I-49] | 100 to 500 nM | 500 to 2000 nM | 500 to 2000 nM
COc1c2c(n(C)c(=O)c1Cl)CN(C(=O)c1cnn(C(F)(F)F)c1)C2C (stereo not drawn) [Compound I-73, 3-Chloro-4-methoxy-1,5-dimethyl-6-(1-(trifluoromethyl)-1H-pyrazole-4-carbonyl)-1,5,6,7-tetrahydro-2H-pyrrolo[3,4-b]pyridin-2-one] | 100 to 500 nM | 500 to 2000 nM | 100 to 500 nM
COc1cc(=O)n(C)c2c1C(C)N(C(=O)c1cnn(C(F)(F)F)c1)C2 (single isomer, unassigned) [Compound I-81] | > 2000 nM | > 2000 nM | > 2000 nM
